Counter-ions that a name gives are not always drawn.
Columns and labels:
[1] = target: T1, VAP-1 (Homo sapiens, UniProt Q16853); assay: Inhibition of the enzymatic activity of VAP-1 in vitro (Amplex Red); type: biochemical; settings: VAP-1 protein about 20 nM, 10 min pre-incubation, benzylamine substrate; read-out: IC50, inhibition against the enzymatic activity of VAP-1
T1 construct: purchased R&D Systems
T1 sequence (Q16853 1-763): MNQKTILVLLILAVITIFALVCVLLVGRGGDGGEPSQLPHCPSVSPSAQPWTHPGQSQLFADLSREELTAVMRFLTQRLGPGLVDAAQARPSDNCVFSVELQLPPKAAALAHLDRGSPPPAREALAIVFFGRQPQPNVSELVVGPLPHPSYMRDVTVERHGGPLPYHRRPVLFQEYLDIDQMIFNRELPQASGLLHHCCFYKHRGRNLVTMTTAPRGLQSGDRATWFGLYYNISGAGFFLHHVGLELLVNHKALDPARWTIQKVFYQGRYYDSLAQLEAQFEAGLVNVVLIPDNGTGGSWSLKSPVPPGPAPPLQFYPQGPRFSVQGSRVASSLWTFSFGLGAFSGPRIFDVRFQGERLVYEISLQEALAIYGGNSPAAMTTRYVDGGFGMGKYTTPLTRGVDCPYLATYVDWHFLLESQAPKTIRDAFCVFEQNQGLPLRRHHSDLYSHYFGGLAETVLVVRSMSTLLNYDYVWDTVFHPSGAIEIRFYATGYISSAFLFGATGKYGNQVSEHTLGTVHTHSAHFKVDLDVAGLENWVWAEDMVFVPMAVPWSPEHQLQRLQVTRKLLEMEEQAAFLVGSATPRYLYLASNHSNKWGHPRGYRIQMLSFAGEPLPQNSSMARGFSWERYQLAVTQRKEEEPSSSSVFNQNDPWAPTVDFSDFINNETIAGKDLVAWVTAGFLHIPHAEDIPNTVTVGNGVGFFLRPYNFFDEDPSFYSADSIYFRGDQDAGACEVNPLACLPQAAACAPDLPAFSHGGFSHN
Description: Inhibition Experiment Against the Enzymatic Activity of VAP-1(Vascular Adhesion Protein 1) in vitro
Test kit: Amplex® Red Monoamine Oxidase Assay, Manufacturer: ThermoFisher
Reaction buffer solution: 50 mM PBS, pH 7.4
Enzyme: VAP-1, Manufacturer: R&D Systems
VAP-1 protein (about 20 nM) and different concentrations of the test compound were pre-incubated at room temperature for 10 minutes, followed by an addition of […] benzylamine hydrochloride, 1 U/mL HRP and 200 μM Amplex Red reagent according to the specification of the test kit to start the reaction. The reaction plate was placed in the enzyme marker, and in kinetic mode, fluorescence signals were measured at Ex/Em=540/590 nm. The relative inhibition activity of each concentration group was calculated, wherein the ratio (slope) of fluorescence signal to reaction time in the linear range is the reaction rate, the vehicle group (DMSO) is the negative control, and the reaction buffer solution group (without enzymes and the compounds) is the blank control. The half inhibition concentration (IC50) of the compound was calculated according to four-parameter model fitting curve.

[2] = target: T2, MAO-B (Homo sapiens, UniProt P27338); assay: Inhibition of the enzymatic activity of MAO-B; type: biochemical; settings: range of IC50 from inhibition rates at 10 μM, 1 μM and 0.1 μM; read-out: IC50, inhibition against the enzymatic activity of MAO-B
T2 construct: purchased Sigma Aldrich
T2 sequence (P27338 1-520): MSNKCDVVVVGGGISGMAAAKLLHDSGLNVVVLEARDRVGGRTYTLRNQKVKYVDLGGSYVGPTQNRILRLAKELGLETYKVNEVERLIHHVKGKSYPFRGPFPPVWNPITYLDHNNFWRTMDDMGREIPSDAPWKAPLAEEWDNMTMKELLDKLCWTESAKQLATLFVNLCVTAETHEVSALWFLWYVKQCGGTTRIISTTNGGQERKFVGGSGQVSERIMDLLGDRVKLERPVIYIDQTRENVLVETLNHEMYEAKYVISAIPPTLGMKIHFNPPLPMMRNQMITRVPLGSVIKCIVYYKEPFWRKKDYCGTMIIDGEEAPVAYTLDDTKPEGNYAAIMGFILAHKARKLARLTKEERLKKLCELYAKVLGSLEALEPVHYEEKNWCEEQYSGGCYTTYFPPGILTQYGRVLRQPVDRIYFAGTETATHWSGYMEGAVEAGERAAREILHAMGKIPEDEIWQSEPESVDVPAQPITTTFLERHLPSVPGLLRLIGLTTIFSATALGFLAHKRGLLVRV
Description: Inhibition Experiment Against the Enzymatic Activity of MAO-B (Monoamine Oxidase Type B)
(§1) 1. Test kit: Amplex® Red Monoamine Oxidase Assay, Manufacturer: ThermoFisher
Protein: MAO-B, manufacturer: Sigma Aldrich
According to the method as described in the specification of the test kit, MAO-B protein (5 μg/ml) and different concentrations of the test compound were pre-incubated at room temperature for 10 minutes, and then 150 μM benzylamine hydrochloride, 1 U/mL HRP and 200 μM Amplex Red reagent were added to start the reaction. The relative inhibition rate of each concentration group were calculated according to the experimental method of MAO-A.
According to the above method, the inhibition of the compound against the activity of the MAO-B was measured, and the range of IC50 was obtained according to the inhibition rates at 10 μM, 1 μM and 0.1 μM.

[3] = target: T3, DAO (Homo sapiens, UniProt P19801); assay: Inhibition of the enzymatic activity of DAO; type: biochemical; settings: DAO 15 μg/ml, histamine substrate; read-out: IC50, inhibition against the enzymatic activity of DAO
T3 construct: purchased R&D Systems
T3 sequence (P19801 20-751): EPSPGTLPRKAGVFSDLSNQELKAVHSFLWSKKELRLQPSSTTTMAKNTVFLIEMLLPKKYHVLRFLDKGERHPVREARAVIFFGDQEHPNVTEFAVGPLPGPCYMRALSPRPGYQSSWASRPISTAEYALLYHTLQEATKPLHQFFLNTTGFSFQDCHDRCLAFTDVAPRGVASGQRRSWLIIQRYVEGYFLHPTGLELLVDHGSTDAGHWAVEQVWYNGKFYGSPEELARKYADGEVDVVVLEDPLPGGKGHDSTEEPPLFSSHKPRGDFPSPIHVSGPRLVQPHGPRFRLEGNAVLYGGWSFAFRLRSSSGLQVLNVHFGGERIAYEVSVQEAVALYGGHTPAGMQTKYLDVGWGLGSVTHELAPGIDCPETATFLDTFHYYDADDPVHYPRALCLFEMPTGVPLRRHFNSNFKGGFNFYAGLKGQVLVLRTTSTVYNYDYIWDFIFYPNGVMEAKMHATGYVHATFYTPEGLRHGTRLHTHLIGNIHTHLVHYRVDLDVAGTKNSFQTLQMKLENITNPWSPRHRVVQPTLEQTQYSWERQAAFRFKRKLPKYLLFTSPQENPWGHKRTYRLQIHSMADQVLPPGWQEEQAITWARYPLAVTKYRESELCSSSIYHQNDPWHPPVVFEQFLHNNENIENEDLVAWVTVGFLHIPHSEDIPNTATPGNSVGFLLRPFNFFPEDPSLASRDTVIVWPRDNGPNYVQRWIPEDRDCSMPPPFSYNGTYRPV
Description: Inhibition Experiment Against the Enzymatic Activity of DAO (Diamine Oxidase)
as §1
Protein: DAO, manufacturer: R&D Systems
DAO protein (15 μg/ml) and different concentrations of the test compound were pre-incubated at room temperature for 20 minutes, and then 100 μM Histamine-dihydrochloride, 1 U/mL HRP and 200 μM Amplex Red reagent were added to start the reaction. The inhibition rate of each concentration groups were calculated according to the experimental method of MAO-A.

[4] = target: T4, MAO-A (Homo sapiens, UniProt P21397); assay: Inhibition of the enzymatic activity of MAO-A; type: biochemical; settings: range of IC50 from inhibition rates at 100 μM and 10 μM; read-out: IC50, inhibition against the enzymatic activity of MAO-A
T4 construct: purchased Sigma Aldrich
T4 sequence (P21397 1-527): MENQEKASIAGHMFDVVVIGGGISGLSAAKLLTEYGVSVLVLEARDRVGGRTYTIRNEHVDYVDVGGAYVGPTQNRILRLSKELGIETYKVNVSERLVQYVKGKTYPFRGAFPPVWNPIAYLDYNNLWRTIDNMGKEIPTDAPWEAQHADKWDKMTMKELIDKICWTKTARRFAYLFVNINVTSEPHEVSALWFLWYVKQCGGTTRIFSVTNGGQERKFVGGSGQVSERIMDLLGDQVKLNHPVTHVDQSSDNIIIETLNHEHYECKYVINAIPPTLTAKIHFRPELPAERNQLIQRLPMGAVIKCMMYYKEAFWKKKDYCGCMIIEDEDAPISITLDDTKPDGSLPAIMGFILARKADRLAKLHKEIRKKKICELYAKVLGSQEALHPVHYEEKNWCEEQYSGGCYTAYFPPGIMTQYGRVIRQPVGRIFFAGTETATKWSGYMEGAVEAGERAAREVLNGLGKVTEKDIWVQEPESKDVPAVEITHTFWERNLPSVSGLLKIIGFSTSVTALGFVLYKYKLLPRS
Description: Inhibition Experiment Against the Enzymatic Activity of MAO-A (Monoamine Oxidase Type A)
as §1
2. Reaction Buffer Solution: 50 mM PBS, pH 7.4
Protein: MAO-A, manufacturer: Sigma Aldrich
According to the method as described in the specification of the kit, MAO-A protein (15 μg/ml) and different concentrations of the test compound were pre-incubated at room temperature for 30 minutes, and then 200 μM p-tyramine hydrochloride, 1 U/mL HRP and 200 µM Amplex Red reagent were added to start the reaction. In kinetic mode, fluorescence signals were measured at Ex/Em=540/590 nm. The inhibition rate of each concentration group was calculated, wherein the ratio of fluorescence signal to reaction time ratio is the reaction rate, the vehicle group (DMSO) is the negative control, and the reaction buffer solution group (without enzymes and the compounds) is the blank control.
Percent inhibition rate (%)=(1-(reaction rate of each compound concentration group−reaction rate of the blank group)/(reaction rate of vehicle group−reaction rate of the blank group))*100.
According to the above method, the inhibition of the compound against the enzymatic activity of MAO-A was measured, and the range of IC50 was obtained according to the inhibition rates at 100 μM and 10 μM.

[5] = target: T5, hERG (Homo sapiens, UniProt Q12809); assay: hERG fluorescence polarization inhibition experiment; settings: human, probe tracer having high affinity to hERG (kit tracer), hERG cell membrane, 25° C. 2 hours, read-out: hERG (IC50 range, competitive binding vs tracer)
T5 construct: purchased ThermoFisher; host or cells: hERG cell membrane supplied with the kit
T5 sequence (Q12809 whole entry): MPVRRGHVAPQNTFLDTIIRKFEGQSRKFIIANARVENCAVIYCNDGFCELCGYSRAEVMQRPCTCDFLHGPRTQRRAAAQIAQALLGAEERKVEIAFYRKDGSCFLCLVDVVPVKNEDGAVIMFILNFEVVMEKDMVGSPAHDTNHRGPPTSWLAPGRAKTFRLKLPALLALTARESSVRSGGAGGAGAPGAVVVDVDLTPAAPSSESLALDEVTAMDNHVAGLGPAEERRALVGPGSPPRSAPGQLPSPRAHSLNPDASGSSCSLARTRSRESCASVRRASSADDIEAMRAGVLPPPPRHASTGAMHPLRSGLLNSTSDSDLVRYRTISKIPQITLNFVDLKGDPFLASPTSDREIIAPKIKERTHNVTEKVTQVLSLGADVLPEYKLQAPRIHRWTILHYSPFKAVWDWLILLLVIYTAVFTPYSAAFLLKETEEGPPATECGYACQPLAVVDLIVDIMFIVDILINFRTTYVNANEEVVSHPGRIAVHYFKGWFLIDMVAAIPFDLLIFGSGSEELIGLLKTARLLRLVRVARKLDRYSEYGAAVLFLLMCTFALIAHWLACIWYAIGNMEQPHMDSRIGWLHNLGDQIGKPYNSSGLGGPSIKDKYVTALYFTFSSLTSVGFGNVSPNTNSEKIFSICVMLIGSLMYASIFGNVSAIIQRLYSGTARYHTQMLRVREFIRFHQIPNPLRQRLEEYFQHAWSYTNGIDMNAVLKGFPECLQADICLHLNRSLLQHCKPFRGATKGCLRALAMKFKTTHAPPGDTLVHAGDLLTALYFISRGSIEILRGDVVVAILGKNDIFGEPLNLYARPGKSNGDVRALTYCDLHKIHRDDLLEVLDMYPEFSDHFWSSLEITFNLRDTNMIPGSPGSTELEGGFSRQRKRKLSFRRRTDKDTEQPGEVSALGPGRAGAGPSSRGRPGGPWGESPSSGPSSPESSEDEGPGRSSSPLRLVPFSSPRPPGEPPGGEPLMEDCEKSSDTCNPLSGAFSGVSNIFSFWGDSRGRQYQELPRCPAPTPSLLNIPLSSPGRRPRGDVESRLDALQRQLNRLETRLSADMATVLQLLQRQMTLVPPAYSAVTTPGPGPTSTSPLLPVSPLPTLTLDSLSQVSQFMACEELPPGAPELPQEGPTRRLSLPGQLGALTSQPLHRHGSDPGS
Description: hERG (Ether-a-go-go-related Gene Potassium Channel) Inhibition Experiment
Reagent: Predictor™ hERG Fluorescence Polarization Assay Kit, Manufacturer: ThermoFisher
The above test kit was used to evaluate the potential of the compound for inducing heart QT prolongation. According to the method as indicated in the specification of the test kit, the test compound, the positive control (E4031) and negative control (Experimental buffer solution) in the kit were added to a microwell plate containing hERG cell membrane, and then a tracer having high affinity to hERG was added. The microwell plate was then incubated at 25° C. for 2 hours, a BMG PHAREStar polyfunctional enzyme marker was used to test the variations in the fluorescent polarization value. By calculating the percent inhibition rates (%) at different concentrations, the range of the half inhibition concentration (IC50) was determined:
Percent inhibition rate (%)=(1-(mP of the test compound-mP of 30 μM E4031)/(mP of experimental buffer solution-mP of 30 μM E4031))*100.

Compound	IC50 [2] [nM]	IC50 [4] [nM]	IC50 [1] [nM]	IC50 [3] [nM]	IC50 at 2 h [5] [nM]
NC/C(=C/F)COc1ccc2c(c1)C(=O)CC2 [TM7-Z, (Z)-6-((2-aminomethyl-3-fluoroallyl)oxy)-2,3-dihydro-1-indenone trifluoroacetate]	> 10000		3.8 ± 0.4	> 100	
NC/C(=C\F)COc1ccc(C(=O)Nc2ccc3c(c2)OCCO3)cc1 [TM114-E, (E)-4-((2-aminomethyl-3-fluoroallyl)oxy)-N-(2,3-dihydrobenzo[b][1,4]dioxa-6-yl)benzamide trifluoroacetate]		> 10000	1.1 ± 0.2		
NC/C(=C/F)COc1ccc(C(=O)Nc2ccc3c(c2)OCCO3)cc1 [TM114-Z, (Z)-4-((2-aminomethyl-3-fluoroallyl)oxy)-N-(2,3-dihydrobenzo[b][1,4]dioxa-6-yl)benzamide trifluoroacetate]		> 10000	0.8 ± 0.1		
(Z)-6-((2-(methylamino)-3-fluoroallyl)oxy)-2-methyl-3,4-dihydroisoquinolin-1(2H)-one trifluoroacetate [TM66-Z]	> 10000		1.6 ± 0.2		
(Z)-6-((2-(methylamino)-3-fluoroallyl)oxy)-3,3-dimethyl-3,4-dihydroisoquinolin-1(2H)-one trifluoroacetate [TM38-Z]	> 10000		2.9 ± 0.3	> 100	

Now from value to compound, other results behind:

IC50 [2] [nM]	IC50 [4] [nM]	Compound	IC50 [1] [nM]	IC50 [3] [nM]	IC50 at 2 h [5] [nM]
> 100	> 100000	NC/C(=C/F)COc1ccc(C(=O)NC2CCOCC2)cc1 [TM76-Z, (Z)-N-(tetrahydro-2H-pyran-4-yl)-4-((2-aminomethyl-3-fluoroallyl)oxy)-benzamide trifluoroacetate]	1.8 ± 0.2		
	> 100000	NC/C(=C/F)COc1ccc2c(c1)CNC2=O [TM77-Z, (Z)-5-((2-aminomethyl-3-fluoroallyl)oxy)isoindol-1-one trifluoroacetate]			> 10000
> 100	> 100000	NC/C(=C\F)COc1ccc(C(=O)NCc2ccccn2)cc1 [TM112-E, (E)-4-((2-aminomethyl-3-fluoroallyl)oxy)-N-(pyridin-2-ylmethyl)benzamide trifluoroacetate]	3.2 ± 0.4		
